The source of these data is patent EP4393921B1, “NALIDINONE COMPOUND AS FGFR4 INHIBITOR AND USE THEREOF” (Wenzhou Medical University, priority 2021, dated 2023).

In one experiment the target is FGFR1 (Homo sapiens, UniProt P11362). The experiment in a line: Mobility shift assay, FGFR1 kinase inhibition.
The target of another experiment is FGFR2 (Homo sapiens, UniProt P21802). Description: Mobility shift assay, FGFR2 kinase inhibition.
In a further experiment the target is FGFR3 (Homo sapiens, UniProt P22607). The experiment in a line: Mobility shift assay, FGFR3 kinase inhibition.
The target of the next experiment is FGFR4 (Homo sapiens, UniProt P22455). Description: Mobility shift assay, FGFR4 kinase inhibition.
Experiment [1] deals with colon cancer cells HCT-116. The experiment in a line: MTT proliferation assay on colon cancer cells HCT-116. Type of experiment: cell-based. The note with it: 3-100 µM, 72 h, dose-dependent, FIG. 4. On the procedure: (§1) An MTT method was used for determination. An experimental method is briefly described as follows. A test compound 23 was first dissolved in DMSO to prepare a stock solution, and then the stock solution was subjected to gradient dilution with a corresponding cell culture medium to prepare a test sample, where a final concentration of the compound was in the range of 3-100 uM. Cells in a logarithmic culture stage were inoculated into a 96-well cell culture plate at an appropriate density, cultured overnight under corresponding conditions, and then continuously cultured for 72 h after the test compound sample was added. After the culture was completed, an appropriate volume of an MTT detection solution was added to each well, incubation was performed at 37°C for 1-4 h, and the culture medium was carefully discarded. […].

The test system of another experiment is colon cancer cells SW480. The experiment in a line: MTT proliferation assay on colon cancer cells SW480. To be noted: 3-100 µM, 72 h, dose-dependent, FIG. 5. Type of experiment: cell-based. On the procedure:
as §1

A further experiment has as its system colon cancer cells RKO. Description: MTT proliferation assay on colon cancer cells RKO. To be noted: 3-100 µM, 72 h, dose-dependent, FIG. 6. Type of experiment: cell-based. The method, then:
as §1

Read-outs that look alike come from different tables or passages of the source. Where only a bound is given, the exact number is not on record here.

Chain of FGFR3 (P22607 23-806): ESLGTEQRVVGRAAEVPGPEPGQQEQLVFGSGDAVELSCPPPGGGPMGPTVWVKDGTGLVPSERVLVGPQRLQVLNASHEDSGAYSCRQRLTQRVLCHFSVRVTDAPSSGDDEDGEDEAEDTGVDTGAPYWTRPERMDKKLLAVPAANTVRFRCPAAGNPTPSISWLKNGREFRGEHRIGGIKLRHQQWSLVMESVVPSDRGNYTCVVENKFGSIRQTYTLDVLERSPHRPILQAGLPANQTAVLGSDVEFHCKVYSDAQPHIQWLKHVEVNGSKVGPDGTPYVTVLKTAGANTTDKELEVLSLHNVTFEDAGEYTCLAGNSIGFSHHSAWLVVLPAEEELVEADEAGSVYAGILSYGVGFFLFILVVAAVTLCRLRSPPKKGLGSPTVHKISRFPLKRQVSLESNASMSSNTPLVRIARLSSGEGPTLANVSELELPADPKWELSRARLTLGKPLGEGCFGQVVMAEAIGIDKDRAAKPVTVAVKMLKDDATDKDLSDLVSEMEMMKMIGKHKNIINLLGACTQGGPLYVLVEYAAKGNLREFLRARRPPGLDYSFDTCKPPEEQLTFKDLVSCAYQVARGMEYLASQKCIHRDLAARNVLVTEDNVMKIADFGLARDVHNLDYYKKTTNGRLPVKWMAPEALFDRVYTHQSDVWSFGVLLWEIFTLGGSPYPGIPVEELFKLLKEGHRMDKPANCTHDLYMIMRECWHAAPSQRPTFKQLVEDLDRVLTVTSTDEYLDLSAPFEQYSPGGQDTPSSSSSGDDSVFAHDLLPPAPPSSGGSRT
Chain of FGFR4 (P22455 22-802): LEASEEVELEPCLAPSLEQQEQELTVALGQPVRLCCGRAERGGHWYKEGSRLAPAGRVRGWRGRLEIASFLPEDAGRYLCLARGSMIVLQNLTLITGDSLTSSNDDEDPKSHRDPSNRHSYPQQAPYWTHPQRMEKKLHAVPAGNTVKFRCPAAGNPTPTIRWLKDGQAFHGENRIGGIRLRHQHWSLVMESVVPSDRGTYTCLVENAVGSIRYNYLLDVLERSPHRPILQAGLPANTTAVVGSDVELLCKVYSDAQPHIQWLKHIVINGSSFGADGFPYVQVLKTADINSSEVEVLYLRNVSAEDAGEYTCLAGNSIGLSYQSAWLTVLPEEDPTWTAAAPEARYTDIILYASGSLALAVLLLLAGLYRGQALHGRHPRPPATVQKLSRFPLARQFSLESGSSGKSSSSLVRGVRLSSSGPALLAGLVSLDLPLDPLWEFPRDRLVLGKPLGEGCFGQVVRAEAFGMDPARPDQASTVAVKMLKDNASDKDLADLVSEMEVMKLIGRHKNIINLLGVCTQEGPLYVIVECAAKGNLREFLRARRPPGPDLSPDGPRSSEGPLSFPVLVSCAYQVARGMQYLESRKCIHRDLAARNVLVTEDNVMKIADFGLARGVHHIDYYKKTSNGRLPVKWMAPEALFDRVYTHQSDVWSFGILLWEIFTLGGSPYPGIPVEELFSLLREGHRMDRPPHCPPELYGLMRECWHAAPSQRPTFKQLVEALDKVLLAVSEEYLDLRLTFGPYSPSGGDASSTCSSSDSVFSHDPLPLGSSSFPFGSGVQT
Chain of FGFR1 (P11362 22-822): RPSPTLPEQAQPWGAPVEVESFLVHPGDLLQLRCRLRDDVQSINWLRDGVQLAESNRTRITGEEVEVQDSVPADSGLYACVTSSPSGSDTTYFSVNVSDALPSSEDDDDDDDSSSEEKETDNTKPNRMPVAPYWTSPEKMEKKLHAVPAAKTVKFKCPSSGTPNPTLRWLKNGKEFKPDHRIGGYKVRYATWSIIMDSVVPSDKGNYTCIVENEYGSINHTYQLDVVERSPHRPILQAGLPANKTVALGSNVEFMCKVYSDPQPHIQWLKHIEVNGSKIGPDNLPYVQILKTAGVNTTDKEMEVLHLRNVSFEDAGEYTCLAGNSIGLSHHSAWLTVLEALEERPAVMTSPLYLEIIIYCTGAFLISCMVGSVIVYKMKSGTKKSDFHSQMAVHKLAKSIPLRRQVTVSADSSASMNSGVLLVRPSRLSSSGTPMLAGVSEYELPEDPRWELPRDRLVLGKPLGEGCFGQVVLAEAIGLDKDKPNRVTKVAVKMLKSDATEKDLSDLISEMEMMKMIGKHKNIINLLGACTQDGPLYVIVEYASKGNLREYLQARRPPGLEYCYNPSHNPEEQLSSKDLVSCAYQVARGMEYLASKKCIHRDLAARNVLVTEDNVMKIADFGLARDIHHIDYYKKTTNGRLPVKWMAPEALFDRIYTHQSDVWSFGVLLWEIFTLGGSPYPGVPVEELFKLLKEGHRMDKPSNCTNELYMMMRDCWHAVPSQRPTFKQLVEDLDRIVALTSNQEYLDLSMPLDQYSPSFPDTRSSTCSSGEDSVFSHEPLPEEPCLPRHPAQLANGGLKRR
Chain of FGFR2 (P21802 22-821): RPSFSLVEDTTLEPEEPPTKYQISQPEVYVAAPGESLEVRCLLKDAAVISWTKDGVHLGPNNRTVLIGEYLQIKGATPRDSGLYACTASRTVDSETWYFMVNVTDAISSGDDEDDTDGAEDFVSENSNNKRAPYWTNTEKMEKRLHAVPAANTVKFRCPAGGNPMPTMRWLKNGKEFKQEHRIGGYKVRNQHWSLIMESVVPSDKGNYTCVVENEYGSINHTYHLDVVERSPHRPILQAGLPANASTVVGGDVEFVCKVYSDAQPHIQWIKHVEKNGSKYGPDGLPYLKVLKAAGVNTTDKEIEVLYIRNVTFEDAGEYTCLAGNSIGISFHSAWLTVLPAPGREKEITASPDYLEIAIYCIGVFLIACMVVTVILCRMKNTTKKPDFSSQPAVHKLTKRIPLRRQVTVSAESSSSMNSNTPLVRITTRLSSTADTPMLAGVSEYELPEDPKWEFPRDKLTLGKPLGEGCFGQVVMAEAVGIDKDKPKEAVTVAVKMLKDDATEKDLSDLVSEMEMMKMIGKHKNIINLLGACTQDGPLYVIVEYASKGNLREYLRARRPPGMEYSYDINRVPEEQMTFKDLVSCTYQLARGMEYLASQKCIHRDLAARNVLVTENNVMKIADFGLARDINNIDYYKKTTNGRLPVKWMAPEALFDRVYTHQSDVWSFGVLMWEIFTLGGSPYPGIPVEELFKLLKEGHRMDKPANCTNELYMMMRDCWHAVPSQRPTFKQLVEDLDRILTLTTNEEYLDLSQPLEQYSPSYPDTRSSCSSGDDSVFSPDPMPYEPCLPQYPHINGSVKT
Method for FGFR1: (§2) A specific experimental method is as follows.
(§3) (1) A 1×Kinase buffer was prepared. […] (3) A kinase solution with a 2.5 times final concentration was prepared with the 1×Kinase buffer. (4) 10 µL of the kinase solution with a 2.5 times final concentration was added to compound holes and positive control holes, respectively; and 10 µL of the 1×Kinase buffer was added to negative control holes. (5) Centrifugation was performed at 1,000 rpm for 30 s, the reaction plate was shaken for even mixing, and incubation was performed at room temperature for 60 min. (6) A mixed solution, with a 25/15 times final concentration, of ATP and Kinase substrate22 was prepared with the 1×Kinase buffer. (7) 15 µL of a mixed solution, with a 5/3 times final concentration, of ATP and a substrate was added to carry out an initial reaction. (8) A 384-well plate was centrifuged at 1,000 rpm for 30 s and shaken for even mixing, and incubation was performed at room temperature for 30 min. (9) 30 µL of a terminal detection solution was added to stop a kinase reaction, centrifugation was performed at 1,000 rpm for 30 s, and shaking was performed for even mixing. (10) A conversion rate was read with Caliper EZ Reader.
(§4) A dose-effect curve is fitted as follows.
(§5) With a concentration log value as an X axis and an inhibition rate percentage as a Y axis, the dose-effect curve was fitted by log (inhibitor) vs. response-Variable slope of analysis software GraphPad Prism 5, so as to obtain an IC50 value of each compound on enzyme activity. A calculation formula is: Y=Bottom+(Top-Bottom)/(1+10^((LogIC50-X)*HillSlope)).
Method for FGFR2: as §2, §3, §4, §5
Method for FGFR3: as §2, §3, §4, §5
Method for FGFR4: as §2, §3, §4, §5

Turning to `C=CC(=O)Nc1cccc(C)c1Nc1cc2c(cn1)cc(-c1c(Cl)c(OC)cc(OC)c1Cl)c(=O)n2CCCO` [Compound 30, N-(2-((3-(2,6-dichloro-3,5-dimethoxyphenyl)-1-(3-hydroxypropyl)-2-oxo-1,2-2H-1,6-naphthyridin-7-yl)amino)-3-methylphenyl)acrylamide], the IC50 on FGFR1 is greater than 5000 nM; at FGFR2, greater than 5 µM; at FGFR3 it was greater than 5 µM.

Regarding `C=CC(=O)Nc1cccc(C)c1Nc1cc2c(cn1)cc(-c1cc(OC)cc(OC)c1)c(=O)n2CCCN1CCCCC1` [Compound 22, N-(2-((3-(3,5-dimethoxyphenyl)-2-oxo-1-(3-(piperidin-1-yl)propyl)-1,2-dihydro-1,6-naphthyridin-7-yl)amino)-3-methylphenyl)acrylamide], the IC50 on FGFR4 is 0.0098 µM; on FGFR1, greater than 5000 nM; on FGFR2, greater than 5 µM; on FGFR3, greater than 5 µM.

Regarding `C=CC(=O)Nc1cccc(C)c1Nc1cc2c(cn1)cc(-c1c(Cl)c(OC)cc(OC)c1Cl)c(=O)n2CCCN1CCCCC1` [Compound 23, N-(2-((3-(2,6-dichloro-3,5-dimethoxyphenyl)-2-oxo-1-(3-(piperidin-1-yl)propyl)-1,2-2H-1,6-naphthyridin-7-yl)amino)-3-methylphenyl)acrylamide], the “inhibition of proliferation of colon cancer cells HCT-116” value in experiment [1] was “can inhibit proliferation”. In the experiment on colon cancer cells SW480, the “inhibition of proliferation of colon cancer cells SW480” value is given as “can inhibit proliferation”. The “inhibition of proliferation of colon cancer cells RKO” value in the experiment on colon cancer cells RKO is given as “can inhibit proliferation”. Besides, the IC50 was 0.0037 µM at FGFR4, greater than 5000 nM at FGFR1, greater than 5 µM at FGFR2 and greater than 5 µM at FGFR3.

For `C=CC(=O)Nc1cccc(C)c1Nc1ncc2cc(-c3c(Cl)c(OC)cc(OC)c3Cl)ccc2n1` [BLU9931, reference compound], the IC50 came to 582 nM at FGFR1 (read-out: IC50 (nM) FGFR1, Mobility shift assay); 0.436 µM on FGFR2; 0.193 µM at FGFR3.

In the case of `C=CC(=O)Nc1cccc(C)c1Nc1cc2c(cn1)cc(-c1c(Cl)c(OC)cc(OC)c1Cl)c(=O)n2CCCN1CCN(C)CC1` [Compound 25, N-(2-((3-(2,6-dichloro-3,5-dimethoxyphenyl)-2-oxo-1-(3-(4-methylpiperazin-1-yl)propyl)-1,2-2H-1,6-naphthyridin-7-yl)amino)-3-methylphenyl)acrylamide], the IC50 on FGFR4 is 0.0058 µM; on FGFR1 it was greater than 5000 nM; at FGFR2, greater than 5 µM; at FGFR3, greater than 5 µM.

Regarding `C=CC(=O)Nc1cccc(C)c1Nc1cc2c(cn1)cc(-c1cc(OC)cc(OC)c1)c(=O)n2CCCN1CCOCC1` [Compound 26, N-(2-((3-(3,5-dimethoxyphenyl)-1-(3-morpholinopropyl)-2-oxo-1,2-dihydro-1,6-naphthyridin-7-yl)amino)-3-methylphenyl)acrylamide], the IC50 is greater than 5000 nM on FGFR1, greater than 5 µM on FGFR2 and greater than 5 µM on FGFR3.

Regarding `C=CC(=O)Nc1cccc(C)c1Nc1cc2c(cn1)cc(-c1cc(OC)cc(OC)c1)c(=O)n2CCCN1CCN(C)CC1` [Compound 24, N-(2-((3-(3,5-dimethoxyphenyl)-2-oxo-1-(3-(4-methylpiperazin-1-yl)propyl)-1,2-dihydro-1,6-naphthyridin-7-yl)amino)-3-methylphenyl)acrylamide], the IC50 is 0.0344 µM at FGFR4, greater than 5000 nM at FGFR1, greater than 5 µM at FGFR2 and greater than 5 µM at FGFR3.

Consider `C=CC(=O)Nc1cccc(C)c1Nc1cc2c(cn1)cc(-c1cc(OC)cc(OC)c1)c(=O)n2CCCO` [Compound 29], for which the IC50 is 0.0315 µM on FGFR4, greater than 5000 nM on FGFR1, greater than 5 µM on FGFR2 and greater than 5 µM on FGFR3.

Take `C=CC(=O)Nc1cccc(C)c1Nc1cc2c(cn1)cc(-c1c(Cl)c(OC)cc(OC)c1Cl)c(=O)n2CCCN1CCOCC1` [Compound 27, N-(2-((3-(2,6-dichloro-3,5-dimethoxyphenyl)-1-(3-morpholinopropyl)-2-oxo-1,2-2H-1,6-naphthyridin-7-yl)amino)-3-methylphenyl)acrylamide]: the half-inhibitory concentration (IC50) was 0.0044 µM at FGFR4, greater than 5000 nM on FGFR1, greater than 5 µM at FGFR2 and greater than 5 µM on FGFR3.
